Tests used:
[1] = biological target: T1, leukotriene A4 hydrolase (LTA4H) (Homo sapiens, UniProt P09960); test: Differential scanning fluorimetry (DSF) screen on LTA4H; type: binding; conditions: 500 μM fragment, mean of duplicates
T1 construct: made in house; host or cells: E. coli BL21 (DE3)
T1 sequence (P09960 1-611): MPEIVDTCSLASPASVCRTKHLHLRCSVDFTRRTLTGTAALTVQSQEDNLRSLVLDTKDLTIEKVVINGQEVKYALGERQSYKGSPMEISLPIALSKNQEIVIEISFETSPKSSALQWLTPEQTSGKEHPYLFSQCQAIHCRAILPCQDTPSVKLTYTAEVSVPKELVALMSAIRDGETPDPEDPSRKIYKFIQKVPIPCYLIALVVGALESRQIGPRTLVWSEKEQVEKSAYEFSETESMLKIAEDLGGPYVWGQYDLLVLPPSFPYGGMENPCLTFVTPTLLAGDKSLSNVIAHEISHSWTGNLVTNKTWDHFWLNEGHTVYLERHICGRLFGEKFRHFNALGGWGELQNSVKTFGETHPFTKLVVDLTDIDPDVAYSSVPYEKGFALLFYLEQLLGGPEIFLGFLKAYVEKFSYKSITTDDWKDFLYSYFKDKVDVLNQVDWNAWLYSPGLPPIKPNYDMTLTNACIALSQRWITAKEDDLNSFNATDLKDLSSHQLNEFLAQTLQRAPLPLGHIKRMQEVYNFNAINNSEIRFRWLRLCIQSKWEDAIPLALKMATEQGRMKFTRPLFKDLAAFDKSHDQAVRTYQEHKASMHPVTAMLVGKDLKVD
Text: For the primary screen of this fragment library, we employed differential scanning fluorimetry (DSF, also known as thermal shift). DSF is generally applicable to a large panel of protein targets and provides a robust, low‐cost screening technology for fragment‐based approaches. ^[20] All five proteins of our interest are soluble and were recombinantly expressed in Escherichia coli. We performed an initial fragment screen on all five targets by DSF. The use of a uniform screening method for all targets ensured consistent data and provided the opportunity to identify false positive hits which interfered with the screening technology. The conditions of the DSF assay were optimized for the desired screening and validated with reference compounds (Table S1 in the Supporting Information). Compounds causing a positive thermal shift ΔT m≥1.0 °C were considered as active.
DSF measurement of the PDFL (single concentration of 500 μM, duplicates, 96‐well format) on the five proteins retrieved 19 fragment hits on sEH, 28 on LTA4H, 12 on 5‐LOX, 16 on RXRα, and 14 on FXR, respectively. Melting point distributions of the screening library for all five targets are depicted in Figure 2. Amongst the hits, three compounds (Table S2) gave a positive signal on all five proteins likely qualifying them as pan assay interference compounds (PAINS). ^[21] Fragments binding to multiple targets (Scheme 1) were identified for seven out of ten target combinations (Figure 2, Table 1). Among them, fragments 4, 6, 7, and 9 match previously identified privileged scaffolds for fatty acid mimetics. ^[14] […] Active ligands containing N‐phenylbenzamide 6 and the N‐phenylbenzylamine 7 have been described for four of the protein targets. Furthermore, indole, which has been characterized as a privileged heterocycle for fatty acid mimetics, ^[14] is present in fragments 5 and 10. Dual 5‐LOX/RXR ligand 1 was present in 5‐LOX inhibitors, while dual FXR/LTA4H modulator 3 is found among known FXR ligands. Fragments 2 (sEH/5‐LOX) and 8 (LTA4H/RXR) are novel scaffolds not appearing in known ligands of any of the five targets.
Figure S3: SDS page of the purified proteins (proteins RXRα and FXR after TEV cleavage) using a 14% polyacrylamide gel, which was stained with coomassi. Precision Plus Protein™ Unstained Protein Standard s (Bio-Rad Laboratories, Inc. ) was used […]
All experiments were performed as duplicates using MicroAmp fast 96 -well plates. Each plate contained 80 different compound wells and 16 DMSO control wells. First 0.8 µl of a 25 mM Preswick Library Fragment dilution in DMSO or pure DMSO were placed in each of the well (final concentration 500 µM). Then 39.2 µl of the master mi x (containing protein, Triton x -100, SYPRO® Orange Protein Gel Stain and buffer that corresponds to the tested protein) were added.
Table S4: Final concentrations in DSF experiments: […]
The measurements were performed using a iCycler iQ™ Single -Color Real Time PCR device with a heat rate of 1 °C per min, an excitation wavelength of 490 nm and an emission wavelength of 570 nm. The first derivation calculated by MyiQ Op tical Software 1.0 was analyzed using Microsoft Office Excel 2013 by comparing the maxima. A shift of 1 °C (in case of 5 -LOX 0.9°C) or more compared to the DMSO control were assumed as potentially binding of the fragment.
(1 picture or pasted object on this page, not shown here)

RXRα = biological target: T2, RXRα (Homo sapiens, UniProt P19793); test: ITC measurement RXRα LBD; type: binding; design: key: n.b.: no binding; w.b.: weak binding; conditions: 50 μM protein, 250 μM compound, 25 °C
T2 construct: MBP (N, cleaved yes); poly-N-tag, His8-tag, TEV site (N, cleaved yes); made in house; host or cells: E. coli T7-express with pGro7 (GroEL/ES)
T2 sequence (P19793 225-462): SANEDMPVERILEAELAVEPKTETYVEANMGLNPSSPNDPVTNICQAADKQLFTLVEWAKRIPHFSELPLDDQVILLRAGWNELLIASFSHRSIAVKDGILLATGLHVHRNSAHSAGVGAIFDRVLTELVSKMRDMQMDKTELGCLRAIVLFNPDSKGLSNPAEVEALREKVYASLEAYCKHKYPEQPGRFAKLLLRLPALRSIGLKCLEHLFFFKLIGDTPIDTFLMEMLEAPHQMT
Method: For hit validation, we employed secondary assays with orthogonal readouts to confirm fragment activities. Biochemical activity assays were chosen for the enzymes sEH, LTA4H, and 5‐LOX. […] RXRα and FXR modulation was assessed in cell‐based hybrid reporter gene assays. All ten compounds were tested at a single concentration of 500 μM in the sEH and LTA4H activity assays and with a concentration of 100 μM on 5‐LOX, RXRα, and FXR. Fragments showing an inhibition greater than 50 % (sEH‐H and LTA4H) or greater than 70 % (5‐LOX) as well as the hits determined in the DSF experiments were further characterized in full concentration‐response curves between 0.1 and 1000 μM. […] As alternative cell‐free assay we employed isothermal titration calorimetry (ITC) to determine binding affinity of the fragments towards the LBDs of both nuclear receptors. ITC was performed with a protein concentration of 50 μM and compound concentrations of 250 μM. […]
Final concentration per well was 3 nM sEH-Fl, 0.001 % Triton X-100, 25 mM Bis-tris, 0.1 mg/ml BSA, pH = 7.0, 1.6% DMSO […]

Structure (SMILES)	DSF/ΔT m LTA4H [1]	RXRα K d (RXRα)
c1ccc(N2CCNCC2)nc1 [Compound 1]	−0.5±0.0 °C	n.b.
Cc1cc(=O)n(-c2ccc(C)c(C)c2)[nH]1 [Compound 2]	−0.1±2.1 °C	–
CCCCOc1cc(C(=O)OC)ccc1N [Compound 3]	2.5±0.0 °C	–
Oc1ccc(Cc2ccccc2)cc1 [Compound 4]	1.5±0.0 °C	–
Oc1ccc2cc[nH]c2c1 [Compound 5]	1.7±0.0 °C	–
Cc1ccccc1C(=O)Nc1ccccc1 [Compound 6]	1.4±1.4 °C	–
CCN(Cc1ccccc1)c1ccccc1 [Compound 7]	0.5±0.0 °C	–
Clc1ccc2c(c1)Nc1ccccc1CC2 [Compound 8]	1.5±0.0 °C	–
Oc1ccc(-c2ccc(F)cc2F)cc1 [Compound 9]	0.7±0.0 °C	n.b.
Fc1ccc(-c2c[nH]c3ccccc23)cc1 [Compound 10]	2.4±0.0 °C	n.b.

Reference: article PMC8049054, “Systematic Assessment of Fragment Identification for Multitarget Drug Design” (Chemmedchem, 2021)
